Key:
SNK-6 (IL-2 2.5 ng/mL) [1] = assay: drug sensitivity score (DSS) (DSS units); higher = more sensitive; extreme values may be limits of the assay; conditions: 72 h
NK-92 (IL-2 2.5 ng/mL) [2] = assay: as above; conditions: 72 h
[3] = test system: normal primary NK cells, pool 3 (3 donors) (IL-2 2.5 ng/mL); assay: as above; conditions: 72 h
[4] = test system: normal primary NK cells, pool 1 (3 donors) (IL-2 2.5 ng/mL); assay: as above; conditions: 72 h
NK-YS (IL-2 2.5 ng/mL) [5] = assay: as above; conditions: 72 h
IMC-1 (IL-2 20 ng/mL) [6] = assay: as above; conditions: 72 h
YT (IL-2 2.5 ng/mL) [7] = assay: as above; conditions: 72 h
NKL (IL-2 2.5 ng/mL) [8] = assay: as above; conditions: 72 h
DERL-7 (IL-2 2.5 ng/mL) [9] = assay: as above; conditions: 72 h
[10] = test system: normal primary NK cells, pool 1 (3 donors), resting (IL-2 0 ng/mL); assay: as above; conditions: 72 h
KAI3 (IL-2 2.5 ng/mL) [11] = assay: as above; conditions: 72 h
[12] = test system: normal primary NK cells, pool 2 (3 donors) (IL-2 2.5 ng/mL); assay: as above; conditions: 72 h
KHYG-1 (IL-2 2.5 ng/mL) [13] = assay: as above; conditions: 72 h
[14] = test system: normal NK cells expanded with K562-aAPC; assay: as above; conditions: 72 h; IL-2 2.5 ng/mL
Procedure: (§1)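 Drug sensitivity and resistance testing on K562-aAPC-expanded normal NK cells: 5 concentrations (10-fold steps over a 10,000-fold range), 72 h at 37 °C, viability by CellTiter-Glo normalised to DMSO and benzethonium chloride controls; DSS from the fitted curve.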

SNK-6 (IL-2 2.5 ng/mL) [15] = assay: percent inhibition of viability; higher = more inhibition; conditions: 72 h
NK-92 (IL-2 2.5 ng/mL) [16] = assay: as above; conditions: 72 h
[17] = test system: normal primary NK cells, pool 3 (3 donors) (IL-2 2.5 ng/mL); assay: as above; conditions: 72 h
[18] = test system: normal primary NK cells, pool 1 (3 donors) (IL-2 2.5 ng/mL); assay: as above; conditions: 72 h
NK-YS (IL-2 2.5 ng/mL) [19] = assay: as above; conditions: 72 h
IMC-1 (IL-2 20 ng/mL) [20] = assay: as above; conditions: 72 h
YT (IL-2 2.5 ng/mL) [21] = assay: as above; conditions: 72 h
NKL (IL-2 2.5 ng/mL) [22] = assay: as above; conditions: 72 h
DERL-7 (IL-2 2.5 ng/mL) [23] = assay: as above; conditions: 72 h
[24] = test system: normal primary NK cells, pool 1 (3 donors), resting (IL-2 0 ng/mL); assay: as above; conditions: 72 h
KAI3 (IL-2 2.5 ng/mL) [25] = assay: as above; conditions: 72 h
[26] = test system: normal primary NK cells, pool 2 (3 donors) (IL-2 2.5 ng/mL); assay: as above; conditions: 72 h
KHYG-1 (IL-2 2.5 ng/mL) [27] = assay: as above; conditions: 72 h
[28] = test system: normal NK cells expanded with K562-aAPC; assay: as above; conditions: 72 h, IL-2 2.5 ng/mL
Procedure: as §1

NC(=O)c1ccc(I)c([N+](=O)[O-])c1 [Iniparib] (max concentration tested 10000 nM)
Conditions | drug sensitivity score
DERL-7 (IL-2 2.5 ng/mL) [9] | 1.1
IMC-1 (IL-2 20 ng/mL) [6] | 0
KAI3 (IL-2 2.5 ng/mL) [11] | 0
KHYG-1 (IL-2 2.5 ng/mL) [13] | 0
NK-92 (IL-2 2.5 ng/mL) [2] | 0
NK-YS (IL-2 2.5 ng/mL) [5] | 0
NKL (IL-2 2.5 ng/mL) [8] | 0
SNK-6 (IL-2 2.5 ng/mL) [1] | 2.01
YT (IL-2 2.5 ng/mL) [7] | 0
[3] | 0.46
[4] | 4.84
[10] | 7.97
[12] | 1.31
[14] | 0.24

percent inhibition of viability [%]
Conditions | 1 nM | 10 nM | 100 nM | 1000 nM | 10000 nM
DERL-7 (IL-2 2.5 ng/mL) [23] | -3.85 | -2.44 | 3.9 | -0.89 | 28.1
IMC-1 (IL-2 20 ng/mL) [20] | 2.82 | 5.28 | 4.37 | 4.53 | -3.7
KAI3 (IL-2 2.5 ng/mL) [25] | 11.4 | 8.8 | 12.9 | 11.2 | 19
KHYG-1 (IL-2 2.5 ng/mL) [27] | -2.79 | -0.73 | -1.94 | 0.34 | 2.04
NK-92 (IL-2 2.5 ng/mL) [16] | 8.25 | 4.1 | 12.8 | 3.36 | 7.28
NK-YS (IL-2 2.5 ng/mL) [19] | -0.99 | 0.64 | -4.34 | -1.33 | -4.16
NKL (IL-2 2.5 ng/mL) [22] | -0.1 | 1.47 | 0.26 | -4.81 | -5.47
SNK-6 (IL-2 2.5 ng/mL) [15] | 2.09 | 3.24 | 11.9 | 10.5 | 23.6
YT (IL-2 2.5 ng/mL) [21] | 7.63 | 6.75 | 4.79 | 6.7 | 5.3
[17] | -1.14 | -4.93 | 1.99 | -1.49 | 19.3
[18] | 8.54 | 2.74 | 4.22 | 12.3 | 53.8
[24] | -2.43 | -4.44 | -6.4 | 24.9 | 78.9
[26] | -8.36 | -7.08 | 1.43 | -0.1 | 30.1
[28] | 7.03 | 0.05 | 0.33 | 1.63 | 13.4

CCc1c2c(nc3ccc(OC(=O)N4CCC(N5CCCCC5)CC4)cc13)-c1cc3c(c(=O)n1C2)COC(=O)[C@]3(O)CC [Irinotecan] (max concentration tested 10000 nM)
Conditions | drug sensitivity score
DERL-7 (IL-2 2.5 ng/mL) [9] | 13.6
IMC-1 (IL-2 20 ng/mL) [6] | 17.4
KAI3 (IL-2 2.5 ng/mL) [11] | 19.5
KHYG-1 (IL-2 2.5 ng/mL) [13] | 21.9
NK-92 (IL-2 2.5 ng/mL) [2] | 22.4
NK-YS (IL-2 2.5 ng/mL) [5] | 18.3
NKL (IL-2 2.5 ng/mL) [8] | 25.6
SNK-6 (IL-2 2.5 ng/mL) [1] | 18.7
YT (IL-2 2.5 ng/mL) [7] | 14.6
[3] | 2.6
[4] | 0.5
[10] | 0
[12] | 1.23
[14] | 8.77

percent inhibition of viability [%]
Conditions | 1 nM | 10 nM | 100 nM | 1000 nM | 10000 nM
DERL-7 (IL-2 2.5 ng/mL) [23] | -4.74 | 4.74 | 6.64 | 65.6 | 96.7
IMC-1 (IL-2 20 ng/mL) [20] | -2.65 | -6.08 | 0 | 95.8 | 99.6
KAI3 (IL-2 2.5 ng/mL) [25] | 16.1 | 10.6 | 29.7 | 88.8 | 84.8
KHYG-1 (IL-2 2.5 ng/mL) [27] | 0.37 | -3.33 | 25.7 | 104 | 109
NK-92 (IL-2 2.5 ng/mL) [16] | 0.95 | -2.29 | 30 | 104 | 109
NK-YS (IL-2 2.5 ng/mL) [19] | -7.5 | -7.35 | 7.27 | 94.2 | 98.5
NKL (IL-2 2.5 ng/mL) [22] | -2.62 | 5.5 | 62.6 | 105 | 108
SNK-6 (IL-2 2.5 ng/mL) [15] | 18.2 | -16.5 | 10.3 | 93.8 | 98.5
YT (IL-2 2.5 ng/mL) [21] | -5.37 | -7.93 | 2.4 | 78.1 | 108
[17] | 3.5 | 8.16 | 16.4 | 10.7 | 17.2
[18] | -8.27 | 6.89 | -1.05 | 3.55 | 14.4
[24] | 4.36 | 9.89 | 22.8 | 2.26 | -9.62
[26] | 1.46 | 0.89 | 3.4 | 10 | 20.8
[28] | -0.14 | -0.75 | 0.82 | 45.8 | 61
